# Publication PMC9140012, “Epigenetic-Like Stimulation of Receptor Expression in SSTR2 Transfected HEK293 Cells as a New Therapeutic Strategy” (Cancers, 2022)
# Where “and” joins values, the source holds several entries; their conditions need not be identical. Identical values can stand only once.
# Tests used:
# [1] = test system: PC3 cells; assay: Intracellular Lu-177-DOTATATE uptake, PC3; assay type: cell-based, human; details: 50 kBq
# Experimental: HEK293 cells were obtained from the German Resource Center for Biological Material (DSMZ, Braunschweig, Germany) and grown in Dulbecco’s modified Eagle´s medium supplemented with 10% fetal calf serum (FCS) in a humidified atmosphere containing 5% CO2. Cells were transfected with plasmid, encoding murine HA-tagged SSTR2 receptors using lipofectamine according to the manufacturing instructions (Thermofisher, Darmstadt, Germany). Stable transfectants were selected in the presence of 500 µg/mL G-418 and characterized using radioligand binding assays, Western blot analyses, surface ELISA assays and immunocytochemistry as described previously. Non-transfected HEK293 cells were maintained under equal conditions as HEKsst2 except for the addition of G-418. In the following, HEK293 cells and SSTR2 transfected HEK293 cells are termed as HEK and HEKsst2, respectively. […]
# After incubation times, the supernatant of the well was removed and the cells were washed twice with PBS (phosphate buffered saline) at 4 °C. […] The activity of all fractions was measured using a Gamma-Counter (Cobra II, Autogamma, Packard®, Canberra Company, Ruesselsheim, Germany). The intracellular activity was expressed as a percentage of the total activity normalized to the cell count of 2.0 × 10^5. […]
# [2] = test system: SSTR2 in HEKsst2 cells; assay: Intracellular Lu-177-DOTATATE uptake, HEKsst2; assay type: cell-based, murine; details: for Lu-177-DOTATATE uptake (intracellular activity, % of total activity normalized to 2.0 × 10^5 cells): 37 °C; for Lu-177-DOTATATE uptake (intracellular activity, % of total activity normalized to 2.0 × 10^5 cells) / increase of Lu-177-DOTATATE uptake by a factor: 50 kBq; for increase of Lu-177-DOTATATE uptake by a factor: stimulated (5.0 µM 5-aza-dC, 1.85 mM VPA) vs unstimulated
# Experimental: (§1) HEK293 cells were obtained from the German Resource Center for Biological Material (DSMZ, Braunschweig, Germany) and grown in Dulbecco’s modified Eagle´s medium supplemented with 10% fetal calf serum (FCS) in a humidified atmosphere containing 5% CO2. Cells were transfected with plasmid, encoding murine HA-tagged SSTR2 receptors using lipofectamine according to the manufacturing instructions (Thermofisher, Darmstadt, Germany). Stable transfectants were selected in the presence of 500 µg/mL G-418 and characterized using radioligand binding assays, Western blot analyses, surface ELISA assays and immunocytochemistry as described previously. Non-transfected HEK293 cells were maintained under equal conditions as HEKsst2 except for the addition of G-418. In the following, HEK293 cells and SSTR2 transfected HEK293 cells are termed as HEK and HEKsst2, respectively. The human prostate carcinoma cell line PC3 (ATCC®, Manassas, VA, USA) was cultured in a RPMI medium with 10% (v/v) FCS and 1% (v/v) non-essential amino acids (NEA). […] The culture medium of each cell line was renewed every 2–3 days. Via a PCR test, each cell line is proven to be free of mycoplasmas.
# After incubation times, the supernatant of the well was removed and the cells were washed twice with PBS (phosphate buffered saline) at 4 °C. Supernatant and washed solution make up the non-bound fraction of the radioligand. The cell layers were lysed with 1 mL 0.1 M NaOH for 10 min at 37 °C. These fractions correspond to the intracellular fraction of radioligand. The activity of all fractions was measured using a Gamma-Counter (Cobra II, Autogamma, Packard®, Canberra Company, Ruesselsheim, Germany). The intracellular activity was expressed as a percentage of the total activity normalized to the cell count of 2.0 × 10^5.
# To examine the statistical significance, an unpaired student’s t-test was used. A difference between two independent samples is significant if the probability of error p ≤ 0.05. For the statistical evaluation, MS Office Excel was used.
# [3] = test system: SSTR2 in HEKsst2 cells; assay: Saturation binding of Lu-177-DOTATATE, HEKsst2; parameters: species or system murine; details: for Kd: excess DOTATATE for non-specific binding; for number of binding sites per cell: from Bmax
# Experimental: as §1
# Excess DOTATATE (3.5 × 10^−3–7.03 nmol) was used to block receptors and determine the non-specific binding. The uptake data (triplicates per each condition) were fitted to a one-site binding model in GraphPad Prism 9.0 to determine the number of binding sites (Bmax) and the dissociation constant (Kd).
# To determine the Bmax values and the Kd, the GraphPad Prism 9.0 software was used. Confidence Intervals (CI) express a 95% likelihood of the nonlinear fit.
# [4] = test system: PC3 cells; assay: Radiotoxic dose-response of Lu-177-DOTATATE (CFA), unstimulated PC3; assay type: cell-based, human; details: up to 0.5 MBq/mL, 24 h, compared with HEKsst2
# Experimental: (§2) To show the dose-response relationship, the unstimulated HEKsst2 and PC3 cells were irradiated with absorbed doses of 0.1–7.5 Gy in an X-ray tube.
# (§3) To determine the radiosensitivity and radiotoxicity, the clonogene cell survival was analyzed. Colony formation assays were performed as described earlier. The following steps have been done for each of the treatment procedures. Briefly, after detaching the treated cells, an aliquot of the cell suspension per dose point was distributed in T25 culture flasks for the colony formation test and is placed in an incubator for 7 (HEKsst2) or 10 days (PC3). To stop colony formation, the cells were fixed with ethanol 80% (v/v) followed by staining with crystal violet solution. The colony counting was carried out under a microscope (25× magnification). Colonies of more than 50 cells were scored as survivors. The plating efficiency (PE) and the survival rate (survival fraction SF) were calculated for irradiated and unirradiated cells based on the number of seeded cells.
# [5] = test system: cell lines HEKsst2 and PC3; assay: A80/A60 of Lu-177-DOTATATE by colony formation assay, HEKsst2 and PC3; assay type: cell-based; details: 24 h incubation, value used for both HEKsst2 and PC3
# Experimental: as §2
# (§4) The stimulation process followed the protocol described above.
# as §3
# [6] = test system: PC3 cells; assay: Radiotoxicity of Lu-177-DOTATATE on unstimulated and stimulated PC3 (CFA); assay type: cell-based, human; details: for cell survival of stimulated vs unstimulated PC3: 5-aza-dC and VPA
# Experimental: as §4, §3
# [7] = test system: HEKsst2 cells; assay: Radiotoxicity of Lu-177-DOTATATE on unstimulated and stimulated HEKsst2 (CFA); assay type: cell-based; details: for Survival Fraction: 24 h
# Experimental: as §4, §3
# [8] = test system: HEKsst2 cells; assay: Radiotoxic dose-response of Lu-177-DOTATATE (CFA), unstimulated HEKsst2; assay type: cell-based
# Experimental: as §2, §3
# [9] = test system: Forskolin-stimulated cAMP production; parameters: method as in PMID 29599907; details: BON-1 and QGP-1 stimulated with 5-aza-dC and VPA; cited from earlier work
substance,measurement,setting,value
"(DOTA)-[Tyr3, Thr8]-octreotide [Lu-177-DOTATATE, SSTR2-targeted radioligand, Lu-177 labelled (DOTA)-[Tyr3, Thr8]-octreotide]",Lu-177-DOTATATE uptake values compared to unstimulated cells,"[1]; stimulated PC3, 1 h, p = 0.4935",marginal increase
same,Lu-177-DOTATATE uptake values compared to unstimulated cells,"[1]; stimulated PC3, 24 h, p = 0.3694",marginal increase
same,"Lu-177-DOTATATE uptake (intracellular activity, % of total activity normalized to 2.0 × 10^5 cells)","[2]; 1 h, cells stimulated 5 days with 5.0 µM 5-aza-dC and 1.85 mM VPA, p = 0.0142 vs unstimulated, gamma counter",50.2%
same,"Lu-177-DOTATATE uptake (intracellular activity, % of total activity normalized to 2.0 × 10^5 cells)","[2]; 1 h, unstimulated cells",1.8%
same,increase in Lu-177-DOTATATE uptake vs unstimulated,"[2]; 1 h, 0.1 µM 5-aza-dC (and 1.85 mM VPA), p = 0.060","also shows stimulatory effects, no significant difference was found"
same,increase in Lu-177-DOTATATE uptake vs unstimulated,"[2]; 1 h, 5.0 µM 5-aza-dC and 1.85 mM VPA, p < 0.05",2800%
same,"Lu-177-DOTATATE uptake (intracellular activity, % of total activity normalized to 2.0 × 10^5 cells)","[2]; 24 h, cells stimulated with 5.0 µM 5-aza-dC and 1.85 mM VPA, p = 0.0090 vs unstimulated",36.2%
same,"Lu-177-DOTATATE uptake (intracellular activity, % of total activity normalized to 2.0 × 10^5 cells)","[2]; 24 h, unstimulated cells",5.6%
same,increase in Lu-177-DOTATATE uptake vs unstimulated,"[2]; 24 h, 3.9 µM 5-aza-dC and 1.85 mM VPA, p < 0.05",≈ 640%
same,increase in Lu-177-DOTATATE uptake vs unstimulated,"[2]; 24 h, 5.0 µM 5-aza-dC and 1.85 mM VPA, p < 0.05",≈ 640%
same,increase of Lu-177-DOTATATE uptake by a factor,"[2]; 1 h, p = 0.0142",28
same,increase of Lu-177-DOTATATE uptake by a factor,"[2]; 24 h, p = 0.0090",6.5
same,Bmax,"[3]; HEKsst2 stimulated with 5-aza-dC and VPA, 1 h, 37 °C, one-site model, specific binding, 95% CI = 1.08 × 10^−9 to 1.62 × 10^−9 nmol",1.32e-09 nmol
same,Kd,"[3]; HEKsst2 stimulated with 5-aza-dC and VPA, 1 h, 37 °C, one-site model",4.88 nM
same,number of binding sites per cell,[3]; HEKsst2 stimulated with 5-aza-dC and VPA,7.95 × 10^5
same,maximum total binding,"[3]; almost reached at 0.5 MBq/mL Lu-177-DOTATATE, HEKsst2","17 kBq/500,000 cells"
same,Bmax,"[3]; as restated in the discussion (Figure 3), unstimulated HEKsst2",4.4 × 10^−10 nmol/cell
same,Bmax as bound activity,[3]; corresponds to Bmax = 4.4 × 10^−10 nmol/cell,"15.5 kBq/500,000 cells"
same,Bmax,"[3]; unstimulated HEKsst2, 1 h, 37 °C, one-site model, specific binding, 95% CI = 4.15 × 10^−10 to 4.58 × 10^−10 nmol",4.36e-10 nmol
same,Kd,"[3]; unstimulated HEKsst2, 1 h, 37 °C, one-site model",2.1 nM
same,number of binding sites per cell,[3]; unstimulated HEKsst2,2.63 × 10^5
same,"number of binding sites per cell, unstimulated compared to stimulated",[3]; unstimulated vs stimulated HEKsst2,three-fold lower
same,decrease of the survival with Lu-177-DOTATATE concentration,[4],much less pronounced
same,A60,[5]; activity equivalent to X-ray D60 (1.2 Gy),136 kBq/mL
same,A80,[5]; activity equivalent to X-ray D80 (0.6 Gy),57.5 kBq/mL
same,cell survival of stimulated vs unstimulated PC3,"[6]; 57.5 kBq/mL Lu-177-DOTATATE, not statistically significant, p = 0.5482",higher SF fractions
same,cell survival of stimulated vs unstimulated PC3,"[6]; 136 kBq/mL Lu-177-DOTATATE, p = 0.5078","only a slight, statistically insignificant difference"
same,radiotoxic effects when stimulated with 5-aza-dC and VPA,"[6]; PC3, Lu-177-DOTATATE 57.5 and 136 kBq/mL",no increase regarding the radiotoxic effects
same,Survival Fraction,"[7]; 57.5 kBq/mL Lu-177-DOTATATE, non-stimulated",0.54
same,Survival Fraction,"[7]; 57.5 kBq/mL Lu-177-DOTATATE, stimulated with 5-aza-dC 0.25 µM and VPA 0.6 mM, normalized to SF = 1, p = 0.1424 vs unstimulated",0.27
same,"factor of increase of radiotoxic effects, stimulated vs unstimulated","[7]; 57.5 kBq/mL, 5-aza-dC 0.25 µM and VPA 0.6 mM",2
same,Survival Fraction,"[7]; 136 kBq/mL Lu-177-DOTATATE, stimulated with 5-aza-dC 0.46 µM and VPA 1.0 mM, normalized to SF = 1, p = 0.0029 vs unstimulated",0.09 and 0.1
same,Survival Fraction,"[7]; 136 kBq/mL Lu-177-DOTATATE, unstimulated",0.42
same,"factor of lower survival, stimulated vs unstimulated (radiotoxic effect increase)","[7]; 136 kBq/mL, 5-aza-dC 0.46 µM and VPA 1.0 mM",4
same,radioactivity concentration at which all SST2 receptors are engaged (assumed),"[8]; HEKsst2, equal to approximately 0.34 ng/500,000 cells",0.5 MBq/mL
same,decrease of SF values with Lu-177-DOTATATE concentration,"[8]; unstimulated HEKsst2, 0.05-5 MBq/mL, 24 h",strong dose-dependent decrease of the SF values until the receptors seemed to be saturated
octreotide,inhibition of the Forskolin-stimulated cAMP production,[9],inhibition of the Forskolin-stimulated cAMP production
